Test results taken from ChEMBL document CHEMBL3885861, “Open TG-GATES”.

Species on record: Rattus norvegicus
Experiment: Open TG-GATES - Regimen: Single
Assay type: toxicity, organism-based, Sprague-Dawley
Parameters: regimen Single, gender Male, age 6 weeks
Details: in vivo, po, 50 mg/kg, route gavage, dose level High; for APTT / Bas / Eos / Fbg / Hb / Ht / Lym / MCH / MCHC / MCV / Mono / Neu / PT / Plat / RBC / Ret / WBC: tissue Blood; for LIVER: tissue Liver; for A/G / ALP / ALT / AST / BUN / CRE / Ca / Cl / DBIL / GLC / IP / K / LDH / Na / PL / RALB / TBIL / TC / TG / TP / gamma-GTP: tissue Plasma

`C=C(C)[C@H]1Cc2c(ccc3c2O[C@@H]2COc4cc(OC)c(OC)cc4[C@@H]2C3=O)O1` [ROTENONE] was tested, and the TERMINAL_BW (3 h) was 195.9 g, the APTT (3 h) was 15.9 s and the Bas (3 h) was 0%. It also gave an Eos (3 h) of 0.8%, a Fbg (3 h) of 204.8 mg/dL and a Hb (3 h) of 13.2 g/dL. It also gave a Ht (3 h) of 40.1%, a Lym (3 h) of 73.4% and an MCH (3 h) of 20.7 pg. For the same molecule, the MCHC (3 h) was 32.8%, the MCV (3 h) was 63.1 fL and the Mono (3 h) was 9.2%. It also gave a Neu (3 h) of 17.4%, a PT (3 h) of 12.6 s and a Plat (3 h) of 124.2 x10_4/uL. It also gave an RBC (3 h) of 636.2 x10_4/ul, a Ret (3 h) of 8.8% and a WBC (3 h) of 89.8 x10_2/uL. For the same molecule, the LIVER (3 h) was 8.5 g, the A/G (3 h) was 2.3 and the ALP (3 h) was 1894.6 IU/L. It also gave an ALT (3 h) of 39 IU/L, an AST (3 h) of 79.4 IU/L and a BUN (3 h) of 13.8 mg/dL. It also gave a CRE (3 h) of 0.4 mg/dL, a Ca (3 h) of 11.1 mg/dL and a Cl (3 h) of 103.6 meq/L. For the same molecule, the DBIL (3 h) was 0.008 mg/dL, the GLC (3 h) was 182.2 mg/dL and the IP (3 h) was 8.9 mg/dL. The K (3 h) was 3.9 meq/L, the LDH (3 h) was 92.6 IU/L and the Na (3 h) was 140.6 meq/L. It also gave a PL (3 h) of 123.2 mg/dL, an RALB (3 h) of 3.7 g/dL and a TBIL (3 h) of 0.036 mg/dL. For the same molecule, the TC (3 h) was 77.4 mg/dL, the TG (3 h) was 49.4 mg/dL and the TP (3 h) was 5.3 g/dL. It also gave a gamma-GTP (3 h) of 1 IU/L, a TERMINAL_BW (6 h) of 197.3 g and an APTT (6 h) of 16.8 s. The Bas (6 h) was 0%, the Eos (6 h) was 0% and the Fbg (6 h) was 213.4 mg/dL. For the same molecule, the Hb (6 h) was 13.3 g/dL, the Ht (6 h) was 40.7% and the Lym (6 h) was 77.8%. For the same molecule, the MCH (6 h) was 20.8 pg, the MCHC (6 h) was 32.7% and the MCV (6 h) was 63.7 fL. For the same molecule, the Mono (6 h) was 6.6%, the Neu (6 h) was 15% and the PT (6 h) was 12.6 s. It also gave a Plat (6 h) of 136.6 x10_4/uL, an RBC (6 h) of 638.2 x10_4/ul and a Ret (6 h) of 9.1%. It also gave a WBC (6 h) of 84.6 x10_2/uL, an LIVER (6 h) of 8.2 g and an A/G (6 h) of 2.3. It also gave an ALP (6 h) of 1068.4 IU/L, an ALT (6 h) of 41.2 IU/L and an AST (6 h) of 75 IU/L. The BUN (6 h) was 11.4 mg/dL, the CRE (6 h) was 0.4 mg/dL and the Ca (6 h) was 11.3 mg/dL. For the same molecule, the Cl (6 h) was 103.8 meq/L, the DBIL (6 h) was 0.01 mg/dL and the GLC (6 h) was 185.8 mg/dL. For the same molecule, the IP (6 h) was 9.9 mg/dL, the K (6 h) was 3.9 meq/L and the LDH (6 h) was 96 IU/L. It also gave a Na (6 h) of 140.6 meq/L, a PL (6 h) of 145.2 mg/dL and an RALB (6 h) of 3.7 g/dL. For the same molecule, the TBIL (6 h) was 0.044 mg/dL, the TC (6 h) was 84.8 mg/dL and the TG (6 h) was 45.6 mg/dL. It also gave a TP (6 h) of 5.4 g/dL, a gamma-GTP (6 h) of 0.2 IU/L and a TERMINAL_BW (9 h) of 196.2 g. The APTT (9 h) was 16.7 s, the Bas (9 h) was 0% and the Eos (9 h) was 0.6%. The Fbg (9 h) was 221.4 mg/dL, the Hb (9 h) was 13 g/dL and the Ht (9 h) was 39.5%. For the same molecule, the Lym (9 h) was 82.2%, the MCH (9 h) was 21.4 pg and the MCHC (9 h) was 33%. For the same molecule, the MCV (9 h) was 64.8 fL, the Mono (9 h) was 4.6% and the Neu (9 h) was 12.6%. The PT (9 h) was 12.6 s, the Plat (9 h) was 137 x10_4/uL and the RBC (9 h) was 610 x10_4/ul. The Ret (9 h) was 8.7%, the WBC (9 h) was 86.6 x10_2/uL and the LIVER (9 h) was 8 g. The A/G (9 h) was 2.3, the ALP (9 h) was 1128.2 IU/L and the ALT (9 h) was 30.6 IU/L. The AST (9 h) was 66.8 IU/L, the BUN (9 h) was 11.8 mg/dL and the CRE (9 h) was 0.4 mg/dL. The Ca (9 h) was 11 mg/dL, the Cl (9 h) was 104.2 meq/L and the DBIL (9 h) was 0.01 mg/dL. The GLC (9 h) was 171.2 mg/dL, the IP (9 h) was 10.2 mg/dL and the K (9 h) was 4.1 meq/L. It also gave an LDH (9 h) of 105 IU/L, a Na (9 h) of 139.6 meq/L and a PL (9 h) of 135.8 mg/dL. For the same molecule, the RALB (9 h) was 3.8 g/dL, the TBIL (9 h) was 0.048 mg/dL and the TC (9 h) was 87.6 mg/dL. For the same molecule, the TG (9 h) was 34.8 mg/dL, the TP (9 h) was 5.4 g/dL and the gamma-GTP (9 h) was 1 IU/L. The TERMINAL_BW (24 h) was 202.8 g, the APTT (24 h) was 16.4 s and the Bas (24 h) was 0%. It also gave an Eos (24 h) of 0.8%, a Fbg (24 h) of 198.6 mg/dL and a Hb (24 h) of 13.3 g/dL. The Ht (24 h) was 40.7%, the Lym (24 h) was 83.8% and the MCH (24 h) was 20.6 pg. The MCHC (24 h) was 32.7%, the MCV (24 h) was 63 fL and the Mono (24 h) was 4.6%. The Neu (24 h) was 10.8%, the PT (24 h) was 12.4 s and the Plat (24 h) was 128.6 x10_4/uL. It also gave an RBC (24 h) of 648.4 x10_4/ul, a Ret (24 h) of 7.3% and a WBC (24 h) of 67.6 x10_2/uL. The LIVER (24 h) was 8.4 g, the A/G (24 h) was 2.5 and the ALP (24 h) was 1301.4 IU/L. It also gave an ALT (24 h) of 25.8 IU/L, an AST (24 h) of 61.4 IU/L and a BUN (24 h) of 13.6 mg/dL. The CRE (24 h) was 0.4 mg/dL, the Ca (24 h) was 11.8 mg/dL and the Cl (24 h) was 104 meq/L. For the same molecule, the DBIL (24 h) was 0.01 mg/dL, the GLC (24 h) was 185.8 mg/dL and the IP (24 h) was 8.3 mg/dL. It also gave a K (24 h) of 4.1 meq/L, an LDH (24 h) of 66.4 IU/L and a Na (24 h) of 140.2 meq/L. It also gave a PL (24 h) of 128 mg/dL, an RALB (24 h) of 4 g/dL and a TBIL (24 h) of 0.042 mg/dL. The TC (24 h) was 74.2 mg/dL, the TG (24 h) was 46.4 mg/dL and the TP (24 h) was 5.5 g/dL. For the same molecule, the gamma-GTP (24 h) was 0.6 IU/L.
